Data: US20260116868A1 (Arcus Biosciences, Inc., priority 2023, published 2026)

Assays:
Jurkat cells = test: IL-2 secretion assay in Jurkat cells activated with CD3/CD28 T Cell Activator; format: cell-based; settings: Homo sapiens; Jurkat cells, CD3/CD28 T Cell Activator, 24 h, IL-2 AlphaLISA; read-out: IL-2 Secretion (EC50)
Description: Certain compounds were also evaluated in an IL-2 secretion assay. On the day of the assay, a 16 point, 1:2 master serial dilution of each compound was prepared in Opti-MEM to span a final concentration range of 10 μM to 300 pM. Assays were set up in CORNING® tissue culture-treated 384-well microplates containing 60 nL of each dilution. Jurkat cells grown in RPMI-1640 supplemented with 10% FBS, 1% Glutamax, and 1% Pen/Strep were collected, resuspended in Opti-MEM. 50,000 cells/well and added to the compound plates. After a short spin (1200 rpm for 1 min), the plates were incubated at 37° C. for 1 hour. The cells were activated by adding 15 μL of IMMUNOCULT™ Human CD3/CD28 T Cell Activator (STEMCELL Technologies) diluted in Opti-MEM. After 24 h of incubation at 37° C., aliquots of culture supernatants were transferred to OptiPlate-384 (PerkinElmer) microplates. The level of IL-2 secretion in the supernatants was then determined using the IL-2 (human) AlphaLISA Detection Kit (PerkinElmer) according to the manufacturer's recommendations. The AlphaLISA signal was measured using an EnVision plate reader (PerkinElmer). EC50 values were determined by fitting the data to a standard 4-parameter logistic equation. See Table 7 for data for select compounds (IL-2 Secretion (EC50)).

Cbl-b = target: T1, Cbl-b (Homo sapiens, UniProt Q13191); test: Cbl-b probe displacement HTRF binding assay; settings: 0.4 nM Cbl-b, 150 nM BODIPY probe
T1 construct: biotin (biotinylated protein)
T1 sequence (Q13191 whole entry, species assumed): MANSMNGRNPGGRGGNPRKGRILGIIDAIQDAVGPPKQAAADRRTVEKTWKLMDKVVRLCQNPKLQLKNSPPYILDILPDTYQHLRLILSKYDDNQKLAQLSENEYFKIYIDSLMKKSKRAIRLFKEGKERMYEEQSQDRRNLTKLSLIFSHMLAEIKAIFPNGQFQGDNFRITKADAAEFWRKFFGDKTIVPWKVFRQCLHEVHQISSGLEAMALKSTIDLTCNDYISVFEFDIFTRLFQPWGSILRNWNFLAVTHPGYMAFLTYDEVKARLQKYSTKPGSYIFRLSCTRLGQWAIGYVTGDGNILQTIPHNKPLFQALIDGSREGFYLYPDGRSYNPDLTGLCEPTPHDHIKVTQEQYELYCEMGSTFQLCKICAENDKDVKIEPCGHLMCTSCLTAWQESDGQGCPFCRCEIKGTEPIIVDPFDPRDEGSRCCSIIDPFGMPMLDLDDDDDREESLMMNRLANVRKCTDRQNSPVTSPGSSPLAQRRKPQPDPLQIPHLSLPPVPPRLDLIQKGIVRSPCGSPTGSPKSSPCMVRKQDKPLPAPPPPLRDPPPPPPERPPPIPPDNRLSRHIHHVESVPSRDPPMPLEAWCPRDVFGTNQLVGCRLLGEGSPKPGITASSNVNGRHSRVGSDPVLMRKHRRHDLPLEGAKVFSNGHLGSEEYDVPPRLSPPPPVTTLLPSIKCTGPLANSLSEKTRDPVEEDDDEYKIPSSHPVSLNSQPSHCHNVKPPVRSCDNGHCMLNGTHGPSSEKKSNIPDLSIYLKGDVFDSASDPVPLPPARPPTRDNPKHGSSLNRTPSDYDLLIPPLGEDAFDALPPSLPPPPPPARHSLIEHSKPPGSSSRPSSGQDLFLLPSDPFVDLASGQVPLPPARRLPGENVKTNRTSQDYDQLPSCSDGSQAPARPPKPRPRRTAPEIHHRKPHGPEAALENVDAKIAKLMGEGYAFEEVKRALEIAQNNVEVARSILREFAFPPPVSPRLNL
Procedure, shortened: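 Binding IC50 from four-parameter fit of HTRF signal loss, normalised to DMSO (0%) and no-protein (100%) wells. Biotinylated Cbl-b 0.4 nM was preincubated 60 min with compound (20-point 1:2 dilution) before 15 min with 150 nM BODIPY probe; Tb-streptavidin detection.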

| Structure (SMILES) | EC50 (Jurkat cells) | IC50 (Cbl-b) |
| --- | --- | --- |
| CC(C)Nc1cc(-c2ccc(Cl)cc2C(=O)N2CC(F)(F)C2)cc(NC(=O)c2cc(CNC[C@@H]3CCCO3)cn(C3CC3)c2=O)n1 [Example 92, N-(4-{4-chloro-2-[(3,3-difluoro-1-azetidinyl)carbonyl]phenyl}-6-(isopropylamino)-2-pyridyl)-5-[({[(S)-tetrahydro-2-furyl]methyl}amino)methyl]-1-cyclopropyl-2-oxo-1,2-dihydronicotinamide] | < 100 nM |  |
| CCOc1cc(-c2ccc(Cl)cc2C(=O)N2CC(F)(F)C2)cc(NC(=O)c2cc(CNC[C@@H]3CCCO3)cn(C3CC3)c2=O)n1 [Example 91, N-(4-{4-chloro-2-[(3,3-difluoro-1-azetidinyl)carbonyl]phenyl}-6-ethoxy-2-pyridyl)-5-[({[(S)-tetrahydro-2-furyl]methyl}amino)methyl]-1-cyclopropyl-2-oxo-1,2-dihydronicotinamide] | < 100 nM |  |
| COCCNCc1cc(C(=O)Nc2cc(-c3ccc(F)cc3C(=O)N3CC(F)C3)cc(C3CC3)n2)c(=O)n(C2CC2)c1 [Example 67, N-(6-cyclopropyl-4-{4-fluoro-2-[(3-fluoro-1-azetidinyl)carbonyl]phenyl}-2-pyridyl)-1-cyclopropyl-5-[(2-methoxyethylamino)methyl]-2-oxo-1,2-dihydronicotinamide] | < 100 nM |  |
| CO[C@@H](C)CNCc1cc(C(=O)Nc2cc(-c3ccc(OC(F)F)cc3C(=O)N3CC(F)(F)C3)cc(C3CC3)n2)c(=O)n(C2CC2)c1 [Example 89, N-(6-cyclopropyl-4-{2-[(3,3-difluoro-1-azetidinyl)carbonyl]-4-difluoromethoxyphenyl}-2-pyridyl)-5-{[(S)-2-methoxypropylamino]methyl}-1-cyclopropyl-2-oxo-1,2-dihydronicotinamide] | < 100 nM |  |
| Cn1cc(CNC[C@@H]2CCCO2)cc(C(=O)Nc2cc(-c3ccc(OC(F)F)cc3C(=O)N3CC(F)(F)C3)cc(C3CC3)n2)c1=O [Example 88, N-[6-cyclopropyl-4-[2-(3,3-difluoroazetidine-1-carbonyl)-4-(difluoromethoxy)phenyl]pyridin-2-yl]-1-methyl-2-oxo-5-[[[(2S)-oxolan-2-yl]methylamino]methyl]pyridine-3-carboxamide] | < 100 nM |  |
| O=C(Nc1cc(-c2ccc(Cl)cc2C(=O)N2CC(F)(F)C2)cc(C2CC2)n1)c1cc(CNC[C@@H]2CCCO2)cn(C2CC2)c1=O [Example 90, N-(4-{4-chloro-2-[(3,3-difluoro-1-azetidinyl)carbonyl]phenyl}-6-cyclopropyl-2-pyridyl)-5-[({[(S)-tetrahydro-2-furyl]methyl}amino)methyl]-1-cyclopropyl-2-oxo-1,2-dihydronicotinamide] | < 100 nM |  |
| CO[C@@H](C)CNCc1cc(C(=O)Nc2cc(-c3ccc(Cl)cc3C(=O)N3CC(F)(F)C3)cc(OCC(F)(F)F)n2)c(=O)n(C2CC2)c1 [Example 82] | < 100 nM |  |
| CO[C@@H](C)CNCc1cc(C(=O)Nc2cc(-c3ccc(Cl)cc3C(=O)N3CC(F)(F)C3)cc(OCC(F)F)n2)c(=O)n(C2CC2)c1 [Example 83] | < 100 nM |  |
| CC(C)CNCc1cc(C(=O)Nc2cc(-c3ccc(OC(F)F)cc3C(=O)N3CC(F)(F)C3)cc(C3CC3)n2)c(=O)n(C2CC2)c1 [Example 85, N-(6-cyclopropyl-4-{2-[(3,3-difluoro-1-azetidinyl)carbonyl]-4-difluoromethoxyphenyl}-2-pyridyl)-1-cyclopropyl-5-[(isobutylamino)methyl]-2-oxo-1,2-dihydronicotinamide] | < 100 nM |  |
| CO[C@@H](C)CNCc1cc(C(=O)Nc2cc(-c3ccc(OC(F)F)cc3C(=O)N3CC(F)(F)C3)cc(C3CC3)n2)c(=O)n(C)c1 [Example 87, N-[6-cyclopropyl-4-[2-(3,3-difluoroazetidine-1-carbonyl)-4-(difluoromethoxy)phenyl]pyridin-2-yl]-5-[[[(2S)-2-methoxypropyl]amino]methyl]-1-methyl-2-oxopyridine-3-carboxamide] | > 5000 nM |  |
| N#Cc1ccc(-c2cc(NC(=O)c3cc(CNC[C@@H]4CCCO4)cn(CC(F)(F)F)c3=O)nc(C3CC3)c2)c(C(=O)N2CC(F)(F)C2)c1 [Example 93, N-[4-[4-cyano-2-(3,3-difluoroazetidine-1-carbonyl)phenyl]-6-cyclopropylpyridin-2-yl]-2-oxo-5-[[[(2S)-oxolan-2-yl]methylamino]methyl]-1-(2,2,2-trifluoroethyl)pyridine-3-carboxamide] | < 100 nM |  |
| COCCNCc1cc(C(=O)Nc2cc(-c3ccc(F)cc3C(=O)N3CC(F)(F)C3)cc(C3CC3)n2)c(=O)n(C2CC2)c1 [Example 68, N-(6-cyclopropyl-4-{2-[(3,3-difluoro-1-azetidinyl)carbonyl]-4-fluorophenyl}-2-pyridyl)-1-cyclopropyl-5-[(2-methoxyethylamino)methyl]-2-oxo-1,2-dihydronicotinamide] | < 100 nM |  |
| CO[C@@H](C)[C@H](C)NCc1cc(C(=O)Nc2cc(-c3ccc(OC(F)F)cc3C(=O)N3CC(F)(F)C3)cc(OC(C)C)n2)c(=O)n(C)c1 [Example 116, N-(4-{2-[(3,3-difluoro-1-azetidinyl)carbonyl]-4-difluoromethoxyphenyl}-6-isopropoxy-2-pyridyl)-5-{[(1S,2S)-2-methoxy-1-methylpropylamino]methyl}-1-methyl-2-oxo-1,2-dihydronicotinamide] |  | < 100 nM |
| N#Cc1cc(F)c(-c2cc(NC(=O)c3cc(CNC[C@@H]4CCCO4)cn(C4CC4)c3=O)nc(C3CC3)c2)c(C(=O)N2CC(F)(F)C2)c1 [Example 231] |  | < 100 nM |
| CC(C)Oc1cc(-c2ccc(C#N)cc2C(=O)N2CC(F)(F)C2)cc(NC(=O)c2cc(CNC[C@@H]3CCCO3)cn(C3CC3)c2=O)n1 [Example 96, N-(4-{4-cyano-2-[(3,3-difluoro-1-azetidinyl)carbonyl]phenyl}-6-isopropoxy-2-pyridyl)-5-[({[(S)-tetrahydro-2-furyl]methyl}amino)methyl]-1-cyclopropyl-2-oxo-1,2-dihydronicotinamide] |  | < 100 nM |
| CC(C)CNCc1cc(C(=O)Nc2cc(-c3ccc(OC(F)F)cc3C(=O)N3CC(F)C3)cc(OC(C)C)n2)c(=O)n(C2CC2)c1 [Example 267] |  | < 100 nM |
| CC(C)CNCc1cc(C(=O)Nc2cc(-c3ccc(C#N)cc3C(=O)N3CC(F)(F)C3)cc(N(C)C)n2)c(=O)n(C2CC2)c1 [Example 193] |  | < 100 nM |
| CC(C)Oc1cc(-c2ccc(C#N)cc2C(=O)N2CC(F)(F)C2)cc(NC(=O)c2cc(CNC(C)C3CC3)cn(C3CC3)c2=O)n1 (stereo in doubt) [Example 140, N-(4-{4-cyano-2-[(3,3-difluoro-1-azetidinyl)carbonyl]phenyl}-6-isopropoxy-2-pyridyl)-1-cyclopropyl-5-{[(S)-1-cyclopropylethylamino]methyl}-2-oxo-1,2-dihydronicotinamide] |  | < 100 nM |
| COc1ccc(-c2cc(NC(=O)c3cc(CN[C@@H](C)[C@H](C)OC)cn(C)c3=O)nc(C3CC3)c2)c(C(=O)N2CC(F)C2)c1 [Example 313] |  | < 100 nM |
| CCOc1cc(-c2ccc(C#N)cc2C(=O)N2CC(F)(F)C2)cc(NC(=O)c2cc(CNCCOC)cn(C3CC3)c2=O)n1 [Example 345] |  | < 100 nM |
| COCCNCc1cc(C(=O)Nc2cc(-c3c(F)cc(C#N)cc3C(=O)N3CC(F)(F)C3)cc(C3CC3)n2)c(=O)n(C2CC2)c1 [Example 237] |  | < 100 nM |
| CC(C)Oc1cc(-c2ccc(C#N)cc2C(=O)N2CC(F)C2)cc(NC(=O)c2cc(CN[C@@H](C)C3CCC3)cn(C)c2=O)n1 [Example 246] |  | < 100 nM |
| COC[C@H](C)NCc1cc(C(=O)Nc2cc(-c3ccc(C#N)cc3C(=O)N3CC(F)(F)C3)cc(C3CC3)n2)c(=O)n(C2CC2)c1 [Example 361] |  | < 100 nM |
| CO[C@@H](C)CNCc1cc(C(=O)Nc2cc(-c3ccc(Cl)cc3C(=O)N3CC(F)(F)C3)cc(NC(C)C)n2)c(=O)n(C)c1 [Example 169] |  | < 100 nM |
| CCOc1cc(-c2ccc(OC(F)F)cc2C(=O)N2CC(F)C2)cc(NC(=O)c2cc(CNC[C@@H]3CCCO3)cn(C3CC3)c2=O)n1 [Example 266] |  | < 100 nM |
| CO[C@@H](C)CNCc1cc(C(=O)Nc2cc(-c3c(F)cc(F)cc3C(=O)N3CC(F)(F)C3)cc(OC(C)C)n2)c(=O)n(C2CC2)c1 [Example 368] |  | < 100 nM |
| C[C@H](NCc1cc(C(=O)Nc2cc(-c3cc(F)c(Cl)cc3C(=O)N3CC(F)(F)C3)cc(C3CC3)n2)c(=O)n(C2CC2)c1)C1CCC1 [Example 216] |  | < 100 nM |
| CO[C@@H](C)CNCc1cc(C(=O)Nc2cc(-c3ccc(F)cc3C(=O)N3CC(F)(F)C3)cc(C3CC3)n2)c(=O)n(C2CC2)c1 [Example 360] |  | < 100 nM |
| CO[C@@H](C)CNCc1cc(C(=O)Nc2cc(-c3ccc(C)cc3C(=O)N3CC(F)(F)C3)cc(C3CC3)n2)c(=O)n(C2CC2)c1 [Example 273] |  | < 100 nM |
